Results published in patent US20210283139A1, “BIFUNCTIONAL MOLECULES FOR TARGETING UCHL5” (AMPHISTA THERAPEUTICS LTD, priority 2018, published 2021).

Assays:
Assay type in all cases: cell-based
Brd4 (S) [1] = biological target: T1, Brd4 (S) (Homo sapiens, UniProt O60885); assay: Concentration-dependent BET degradation, immunoblot, HeLa cells; settings: 6 h treatment, 1 nM-10 μM; for Dmax: read-out: Dmax (%) maximum degradation observed
T1 construct: endogenous in cells; host or cells: HEK293, HeLa
Experimental: (§1) Cell culture. HeLa (CCL-2) and HEK293 (CRL-1573) cells were purchased from ATCC and cultured in DMEM medium (Gibco) supplemented with 10% FBS, 100 μg/mL penicillin/streptomycin and L-glutamine. Cells were grown at 37° C. and 5% CO2, and were kept no longer than 30 passages. All cell lines were routinely tested for mycoplasma contamination using MycoAlert kit from Lonza.
(§2) Immunoblotting. proteins were separated by SDS-PAGE on NuPage 4-12% Bis-Tris gels, followed by transfer to Amersham Protran 0.45 NC nitrocellulose membrane (GE Healthcare) using wet transfer. Membranes were blocked using 5% w/v milk in Tris-buffered saline (TBS) with 0.1% Tween-20. Blots were probed (overnight at 4° C.) using anti-Brd2 (Abcam ab139690, 1:2,000 dilution), anti-Brd3 (Abcam ab50818, 1:500 dilution), and anti-Brd4 (Abcam ab128874, 1:1,000 dilution) primary antibodies, as appropriate. The next day, blots were washed with TBST and incubated (1 hr at RT) with anti-Tubulin hFAB-rhodamine (BioRad, 12004166) primary antibody, and either anti-rabbit IRDye 800CW (Licor 1:10,000 dilution) or anti-mouse IRDye 800CW (Licor 1:10,000 dilution) secondary antibody. Blots were developed using a Bio-Rad ChemiDoc MP Imaging System, and band quantification was performed using Image Studio software (LiCor). Band intensities were normalized to the tubulin loading control and reported as % of the average 0.1% DMSO vehicle intensity. Degradation data was plotted and analysed using Prism (Graphpad, version 8).
(§3) HeLa (5×10^5) and HEK293 (1×10^6) cells were seeded in standard 6-well plates (2 mL medium) overnight before treatment with compounds at the desired concentration (1 nM-10 μM), with a final DMSO concentration of 0.1% v/v. After 6 h treatment time, cells were washed with DPBS (Gibco) and lysed using 85 μL RIPA buffer (Sigma-Aldrich) supplemented with cOmplete Mini EDTA-free protease inhibitor cocktail (Roche) and benzonase. Lysates were clarified by centrifugation (20,000g, 10 min, 4° C.) and the total protein content of the supernatant was quantified using a Bradford colorimetric assay. Samples were prepared using equal amounts of total protein and LDS sample buffer (Invitrogen.
(§4) Representative blots in FIG. 3 show depletion of Brd2, Brd3 and Brd4 protein levels following treatment with increasing concentrations of representative compounds. Band intensities were normalized to the β-tubulin loading control and reported as % of the average 0.1% DMSO vehicle intensity, with each point representing mean±SEM of two independent experiments (n=2). Degradation data was plotted and analysed using Prism (Graphpad, version 8)

Brd4 (L) [2] = biological target: T2, Brd4 (L) (Homo sapiens, UniProt O60885); assay: as above; settings: 6 h treatment, 1 nM-10 μM; for Dmax: read-out: Dmax (%) maximum degradation observed
T2 construct: endogenous in cells; host or cells: HEK293, HeLa
Experimental: as §1, §2, §3, §4

Brd4 (S) [3] = biological target: T1, Brd4 (S); assay: Concentration-dependent BET degradation, immunoblot, HEK293 cells; settings: 6 h treatment, 1 nM-10 μM; for Dmax: read-out: Dmax (%) maximum degradation observed
Experimental: as §1, §2, §3, §4

Brd4 (L) [4] = biological target: T2, Brd4 (L); assay: as above; settings: 6 h treatment, 1 nM-10 μM; for Dmax: read-out: Dmax (%) maximum degradation observed
Experimental: as §1, §2, §3, §4

Brd2 [5] = biological target: T3, Brd2 (Homo sapiens, UniProt P25440); assay: as above; parameters: endogenous in cells; host or cells: HEK293; settings: HEK293, Brd2, 6 h treatment, 1 nM-10 μM; for Dmax: read-out: Dmax (%) maximum degradation observed
T3 sequence (P25440 whole entry): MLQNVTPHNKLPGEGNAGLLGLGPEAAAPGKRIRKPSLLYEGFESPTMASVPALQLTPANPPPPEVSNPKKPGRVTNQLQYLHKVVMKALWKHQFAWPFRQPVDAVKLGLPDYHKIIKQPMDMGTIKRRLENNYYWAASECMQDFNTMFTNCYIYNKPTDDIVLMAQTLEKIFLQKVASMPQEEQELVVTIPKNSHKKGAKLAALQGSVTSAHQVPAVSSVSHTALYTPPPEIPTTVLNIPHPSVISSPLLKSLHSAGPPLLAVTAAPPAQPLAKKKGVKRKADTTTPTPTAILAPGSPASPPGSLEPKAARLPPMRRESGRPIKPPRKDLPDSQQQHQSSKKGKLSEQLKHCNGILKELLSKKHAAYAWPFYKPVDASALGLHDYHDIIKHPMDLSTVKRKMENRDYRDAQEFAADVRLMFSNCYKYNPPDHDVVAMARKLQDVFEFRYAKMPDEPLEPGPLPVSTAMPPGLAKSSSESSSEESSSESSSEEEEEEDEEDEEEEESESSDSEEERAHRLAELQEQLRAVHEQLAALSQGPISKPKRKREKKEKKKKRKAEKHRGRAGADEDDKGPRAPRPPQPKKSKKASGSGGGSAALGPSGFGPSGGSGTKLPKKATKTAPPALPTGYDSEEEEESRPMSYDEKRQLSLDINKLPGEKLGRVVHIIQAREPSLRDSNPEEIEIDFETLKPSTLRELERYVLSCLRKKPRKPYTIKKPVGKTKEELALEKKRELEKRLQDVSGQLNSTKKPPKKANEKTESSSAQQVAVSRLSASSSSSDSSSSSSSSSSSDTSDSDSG
Experimental: as §1, §2, §3, §4

Brd3 [6] = biological target: T4, Brd3 (Homo sapiens, UniProt Q15059); assay: as above; parameters: endogenous in cells; host or cells: HEK293; settings: HEK293, Brd3, 6 h treatment, 1 nM-10 μM; for Dmax: read-out: Dmax (%) maximum degradation observed
T4 sequence (Q15059 whole entry): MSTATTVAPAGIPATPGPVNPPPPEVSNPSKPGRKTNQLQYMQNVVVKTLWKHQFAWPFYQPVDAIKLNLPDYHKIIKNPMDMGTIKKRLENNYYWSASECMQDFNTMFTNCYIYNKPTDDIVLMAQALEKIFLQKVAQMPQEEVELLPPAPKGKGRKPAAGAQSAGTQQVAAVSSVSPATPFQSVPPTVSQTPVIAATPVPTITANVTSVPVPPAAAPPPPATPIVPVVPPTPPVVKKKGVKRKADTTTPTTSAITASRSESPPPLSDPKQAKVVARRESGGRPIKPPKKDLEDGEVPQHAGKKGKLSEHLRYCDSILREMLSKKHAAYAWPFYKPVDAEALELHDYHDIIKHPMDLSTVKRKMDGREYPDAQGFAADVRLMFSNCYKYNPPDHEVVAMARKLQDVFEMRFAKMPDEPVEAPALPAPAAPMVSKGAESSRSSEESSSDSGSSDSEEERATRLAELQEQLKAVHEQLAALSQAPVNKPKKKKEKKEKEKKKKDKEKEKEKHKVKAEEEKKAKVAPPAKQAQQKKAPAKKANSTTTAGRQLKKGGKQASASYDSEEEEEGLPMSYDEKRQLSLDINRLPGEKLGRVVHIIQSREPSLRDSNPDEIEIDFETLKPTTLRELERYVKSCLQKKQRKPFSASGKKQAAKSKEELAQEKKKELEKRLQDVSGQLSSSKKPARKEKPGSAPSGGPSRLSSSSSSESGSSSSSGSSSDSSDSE
Experimental: as §1, §2, §3, §4

Brd4 (S) [7] = biological target: T1, Brd4 (S); assay: Time-dependent BET degradation, immunoblot, HEK293 cells; parameters: dose or concentration left out as unconfirmed; settings: timecourse 0-8 h
Experimental: as §1, §2
as §3, with “(3×10^5)” for “(5×10^5)”, “(0.5×10^6)” for “(1×10^6)”, “1 μM concentration,” for “the desired concentration (1 nM-10 μM),”, “incubation for the desired time (0-8 h),” for “6 h treatment time,”, “(20,000 g,” for “(20,000g,”, “(Invitrogen).” for “(Invitrogen.”
as §4, with “FIG. 4” for “FIG. 3”, “following 1 μM” for “following”, “treatment at various time points” for “treatment”, “with” for “with increasing concentrations of”, “version 8).” for “version 8)”
(§5) T½ (h) is the time required to deplete 50% of the protein relative to DMSO

Brd4 (L) [8] = biological target: T2, Brd4 (L); assay: as above; parameters: dose or concentration left out as unconfirmed; settings: timecourse 0-8 h
Experimental: as §1, §2
as §3, with “(3×10^5)” for “(5×10^5)”, “(0.5×10^6)” for “(1×10^6)”, “1 μM concentration,” for “the desired concentration (1 nM-10 μM),”, “incubation for the desired time (0-8 h),” for “6 h treatment time,”, “(20,000 g,” for “(20,000g,”, “(Invitrogen).” for “(Invitrogen.”
as §4, with “FIG. 4” for “FIG. 3”, “following 1 μM” for “following”, “treatment at various time points” for “treatment”, “with” for “with increasing concentrations of”, “version 8).” for “version 8)”
as §5

Brd2 [9] = biological target: T3, Brd2; assay: Time-dependent BET degradation, immunoblot, HeLa cells; parameters: endogenous in cells; host or cells: HeLa; settings: Brd2, 1 μM, timecourse 0-8 h
Experimental: as §1, §2
as §3, with “(3×10^5)” for “(5×10^5)”, “(0.5×10^6)” for “(1×10^6)”, “1 μM concentration,” for “the desired concentration (1 nM-10 μM),”, “incubation for the desired time (0-8 h),” for “6 h treatment time,”, “(20,000 g,” for “(20,000g,”, “(Invitrogen).” for “(Invitrogen.”
as §4, with “FIG. 4” for “FIG. 3”, “following 1 μM” for “following”, “treatment at various time points” for “treatment”, “with” for “with increasing concentrations of”, “version 8).” for “version 8)”
as §5

Brd3 [10] = biological target: T4, Brd3; assay: as above; parameters: endogenous in cells; host or cells: HeLa; settings: Brd3, 1 μM, timecourse 0-8 h
Experimental: as §1, §2
as §3, with “(3×10^5)” for “(5×10^5)”, “(0.5×10^6)” for “(1×10^6)”, “1 μM concentration,” for “the desired concentration (1 nM-10 μM),”, “incubation for the desired time (0-8 h),” for “6 h treatment time,”, “(20,000 g,” for “(20,000g,”, “(Invitrogen).” for “(Invitrogen.”
as §4, with “FIG. 4” for “FIG. 3”, “following 1 μM” for “following”, “treatment at various time points” for “treatment”, “with” for “with increasing concentrations of”, “version 8).” for “version 8)”
as §5

Brd4 (S) [11] = biological target: T1, Brd4 (S); assay: as above; parameters: dose or concentration left out as unconfirmed; settings: timecourse 0-8 h
Experimental: as §1, §2
as §3, with “(3×10^5)” for “(5×10^5)”, “(0.5×10^6)” for “(1×10^6)”, “1 μM concentration,” for “the desired concentration (1 nM-10 μM),”, “incubation for the desired time (0-8 h),” for “6 h treatment time,”, “(20,000 g,” for “(20,000g,”, “(Invitrogen).” for “(Invitrogen.”
as §4, with “FIG. 4” for “FIG. 3”, “following 1 μM” for “following”, “treatment at various time points” for “treatment”, “with” for “with increasing concentrations of”, “version 8).” for “version 8)”
as §5

Brd4 (L) [12] = biological target: T2, Brd4 (L); assay: as above; parameters: dose or concentration left out as unconfirmed; settings: timecourse 0-8 h
Experimental: as §1, §2
as §3, with “(3×10^5)” for “(5×10^5)”, “(0.5×10^6)” for “(1×10^6)”, “1 μM concentration,” for “the desired concentration (1 nM-10 μM),”, “incubation for the desired time (0-8 h),” for “6 h treatment time,”, “(20,000 g,” for “(20,000g,”, “(Invitrogen).” for “(Invitrogen.”
as §4, with “FIG. 4” for “FIG. 3”, “following 1 μM” for “following”, “treatment at various time points” for “treatment”, “with” for “with increasing concentrations of”, “version 8).” for “version 8)”
as §5

Brd2 [13] = biological target: T3, Brd2; assay: Time-dependent BET degradation, immunoblot, HEK293 cells; parameters: endogenous in cells; host or cells: HEK293; settings: HEK293, Brd2, 1 μM, timecourse 0-8 h
Experimental: as §1, §2
as §3, with “(3×10^5)” for “(5×10^5)”, “(0.5×10^6)” for “(1×10^6)”, “1 μM concentration,” for “the desired concentration (1 nM-10 μM),”, “incubation for the desired time (0-8 h),” for “6 h treatment time,”, “(20,000 g,” for “(20,000g,”, “(Invitrogen).” for “(Invitrogen.”
as §4, with “FIG. 4” for “FIG. 3”, “following 1 μM” for “following”, “treatment at various time points” for “treatment”, “with” for “with increasing concentrations of”, “version 8).” for “version 8)”
as §5

Brd3 [14] = biological target: T4, Brd3; assay: as above; parameters: endogenous in cells; host or cells: HEK293; settings: HEK293, Brd3, 1 μM, timecourse 0-8 h
Experimental: as §1, §2
as §3, with “(3×10^5)” for “(5×10^5)”, “(0.5×10^6)” for “(1×10^6)”, “1 μM concentration,” for “the desired concentration (1 nM-10 μM),”, “incubation for the desired time (0-8 h),” for “6 h treatment time,”, “(20,000 g,” for “(20,000g,”, “(Invitrogen).” for “(Invitrogen.”
as §4, with “FIG. 4” for “FIG. 3”, “following 1 μM” for “following”, “treatment at various time points” for “treatment”, “with” for “with increasing concentrations of”, “version 8).” for “version 8)”
as §5

Brd2 [15] = biological target: T3, Brd2; assay: Concentration-dependent BET degradation, immunoblot, HeLa cells; parameters: endogenous in cells; host or cells: HeLa; settings: Brd2, 6 h treatment, 1 nM-10 μM; for Dmax: read-out: Dmax (%) maximum degradation observed
Experimental: as §1, §2, §3, §4

Brd3 [16] = biological target: T4, Brd3; assay: as above; parameters: endogenous in cells; host or cells: HeLa; settings: Brd3, 6 h treatment, 1 nM-10 μM; for Dmax: read-out: Dmax (%) maximum degradation observed
Experimental: as §1, §2, §3, §4

Row | Structure (SMILES) | DC50 (Brd4 (S) [1]) [nM] | Dmax (Brd4 (S) [1]) [%] | DC50 (Brd4 (L) [2]) [nM] | Dmax (Brd4 (L) [2]) [%] | DC50 (Brd4 (S) [3]) [nM] | Dmax (Brd4 (S) [3]) [%] | DC50 (Brd4 (L) [4]) [nM] | Dmax (Brd4 (L) [4]) [%] | DC50 (Brd2 [5]) [nM] | Dmax (Brd2 [5]) [%] | DC50 (Brd3 [6]) [nM] | Dmax (Brd3 [6]) [%] | Dmax (Brd4 (S) [7]) [%] | Dmax (Brd4 (L) [8]) [%] | Dmax at 1 µM (Brd2 [9]) [%] | Dmax at 1 µM (Brd3 [10]) [%] | Dmax (Brd4 (S) [11]) [%] | Dmax (Brd4 (L) [12]) [%] | Dmax (Brd2 [15]) [%] | Dmax (Brd3 [16]) [%] | also measured
1 | CCCC(NC(=O)/C(C#N)=C/c1cccc(Br)n1)c1ccc(OCC=NOCC(=O)NCCOCCOCCOCCNC(=O)c2ccc3c(c2)[C@H](Nc2ccc(Cl)cc2)C[C@H](C)N3C(C)=O)cc1 (some centres unmarked) [Example 05IB2] | 51 to 500 | ≥ 71 | 51 to 500 | ≥ 71 | ≤ 50 | ≥ 71 | ≤ 50 | ≥ 71 | 51 to 500 | 51 to 70 | 51 to 500 | ≥ 71 | 100 | 100 | 50 | 93 | 67 | 67 | 26 to 50 | 26 to 50 | Dmax at 1 µM (Brd2 [13]): 76%; Dmax at 1 µM (Brd3 [14]): 100%; DC50 (Brd2 [15]): 51 to 500 nM; DC50 (Brd3 [16]): 51 to 500 nM
2 | CCCC(NC(=O)/C(C#N)=C/c1nc(Cl)ccc1Cl)c1ccc(OCCOCCOCCOCCOCCOCCOCCNC(=O)c2ccc(-c3ccc4c(c3)[C@H](Nc3ccc(Cl)cc3)C[C@H](C)N4C(C)=O)cc2)cc1 (some centres unmarked) [Example 05IB10] | 51 to 500 | ≥ 71 | ≤ 50 | 51 to 70 | ≤ 50 | ≥ 71 | ≤ 50 | ≥ 71 | 51 to 500 | 51 to 70 | 51 to 500 | ≥ 71 | 99 | 100 | 97 | 100 | 100 | 100 | ≥ 71 | ≥ 71 | Dmax at 1 µM (Brd2 [13]): 82%; Dmax at 1 µM (Brd3 [14]): 90%; DC50 (Brd2 [15]): ≤ 50 nM; DC50 (Brd3 [16]): 51 to 500 nM
3 | CCCC(NC(=O)C(C#N)Cc1cccc(Br)n1)c1ccc(OCCOCCOCCOCCOCCOCCOCCNC(=O)c2ccc(-c3ccc4c(c3)[C@H](Nc3ccc(Cl)cc3)C[C@H](C)N4C(C)=O)cc2)cc1 (some centres unmarked) [Example 05IB12] | – | ≤ 25 | – | ≤ 25 | – | 26 to 50 | – | ≤ 25 | – | ≤ 25 | – | ≤ 25 | – | – | – | – | – | – | ≤ 25 | 26 to 50 | –
